Experiments:
H460 cells = experiment: Proliferation assay in H460 cells (2 hr exposure, AlamarBlue); type: cell-based, human; details: Homo sapiens, NCI-H460, 2 hrs exposure, wash, 70 hrs growth, read-out: IC 50 in proliferation assay in H460 cells
Method: In vitro proliferation data on the H460 […] human tumor cell line is reported above in the compound table.
Specifically, exponentially growing cells were seeded at a density of 4×10^3 cells per well in a 96 well plate and incubated at 37° C. in 5% CO2, 95% air and 100% relative humidity for 24 hours prior to addition of test compounds. Compounds were solubilized in 100% DMSO at 200 times the desired final test concentration. At the time of drug addition, compounds were further diluted to 4 times the desired final concentration with complete medium. Aliquots of 50 μl of compound at specified concentrations were added to microtiter wells already containing 150 μl of medium, resulting in the final drug concentration reported. After drug addition, the plates were incubated for an additional 2 hours at 37° C., 5% CO2, 95% air, and 100% relative humidity, then the drug was washed off and fresh medium was added and the plates were incubated for addition 70 hrs at 37° C., 5% CO2, 95% air and 100% relative humidity. At the end of this incubation, the viable cells were quantified using the AlamarBlue assay. The drug concentration resulting in growth inhibition of 50% (IC50) was calculated using Prism software (Irvine, Calif.), and the results were listed in the table.

A549 NSCLC xenograft = experiment: Example 4-D antitumor efficacy, ectopic A549 NSCLC xenograft model; type: in vivo, female nude mice (nu/nu); details: 10 mg/kg IP QD × 5/wk × 2 wks
Excerpt: Specific pathogen-free homozygous female nude mice (nu/nu, Charles River Laboratories) were used. Mice were given food and water ad libitum and housed in microisolator cages. Four to six week old animals were identified by microchips (Locus Technology, Manchester, Md., USA) at the time of the experiments. All animal studies were approved by the Institutional Animal Care and Use Committee at Threshold Pharmaceuticals, Inc.
All cell lines were from the American Type Culture Collection (ATCC, Rockville, Md., USA).
(§1) Cells were mixed with Matrigel (50% with exception for 30% in the H460) and 0.2 ml per mouse were subcutaneously implanted to the flank area of the animals. When tumor size reached 100-150 250 mm3, mice were randomized into experimental or vehicle groups with 10 mice/group and treatment was started (Day 1). The tested compounds were formulated in 5% DMSO in D5W. The regimens employed in the examples include IP, QD×5/wk (5 days on, 2 days off) as one cycle, for a total of 2 cycles; IP, once; IP, weekly for total 3 weeks; and IV, weekly for 3 weeks. Tumor growth and body weight were measured twice a week. Tumor volume was calculated as (length×width2)/2. Drug efficacy was assessed as Tumor Growth Inhibition (TGI) and Tumor Growth Delay (TGD). TGI was defined as (1−ΔT/ΔC)×100, where ΔT/ΔC presented the ratio of the change in mean (or median, if variation within the group was relatively large) tumor volume of the treated group and of the control group. TGD was calculated as the extra days for the treated tumor to reach 500 mm3 or 1000 mm3 as compared to the control group. Animals were culled when individual tumor size reached over 2000 mm3 or mean tumor volume exceeded 1000 mm3 in the group. Data are expressed as the mean±SEM. One-way analysis of variance with Dunnett post comparison test (GraphPad Prism 4) or two-tailed student's t-test were used for analysis. A P level <0.05 was considered statistically significant.
(§2) The compounds were tested in another A549 model. The compounds were dosed as follows. Daily IP dosing: 5 doses then 2 days off then 5 more doses starting at 100 mm^3 tumors on day 1 (10 animals per group average tumor volume). The antitumor effects and the safety of administration are graphically illustrated below.

[1] = Example 4-D body weight change and lethal toxicity, A549 xenograft study; type: in vivo, female nude mice (nu/nu); details: 10 mg/kg IP QD × 5/wk × 2 wks
Method: as §1, §2

Row | Structure (SMILES) | IC50 (H460 cells) | other results
1 | Cc1ccc(Oc2cc(C(C)OP(=O)(N3CC3)N3CC3)ccc2[N+](=O)[O-])cn1 (centres unmarked) [Compound 2891] | 30 nM | –
2 | CS(=O)(=O)c1ccc(Oc2cc(COP(=O)(N3CC3)N3CC3)ccc2[N+](=O)[O-])cc1 [Compound 2911] | 8 nM | TGD 500 (A549 NSCLC xenograft): 63 days; TGI (A549 NSCLC xenograft): 88.7%; Max. BW loss % [1]: 11.1%; Lethal Tox ([1]; 10 animals per group): 0
3 | N#C/C(=N\Oc1cc(COP(=O)(N2CC2)N2CC2)ccc1[N+](=O)[O-])c1ccccc1 [Compound 2948] | 40 nM | –
4 | CS(=O)(=O)c1ccccc1Oc1cc(COP(=O)(N2CC2)N2CC2)ccc1[N+](=O)[O-] [Compound 2981] | 3700 nM | –
5 | CNC(=O)c1cccc(Oc2cc(C(C)OP(=O)(N3CC3)N3CC3)ccc2[N+](=O)[O-])c1 (centres unmarked) [Compound 2884] | 10 nM | –
6 | CC(OP(=O)(N1CC1)N1CC1)c1ccc([N+](=O)[O-])c(Oc2cnc3cccnc3c2)c1 (centres unmarked) [Compound 2933] | 100 nM | –
7 | CC(OP(=O)(N1CC1)N1CC1)c1ccc([N+](=O)[O-])c(Oc2ccc(S(=O)(=O)N(C)C)cc2)c1 (centres unmarked) [Compound 2881] | 30 nM | –
8 | N#Cc1ccc(Oc2cc(COP(=O)(N3CC3)N3CC3)ccc2[N+](=O)[O-])cc1 [Compound 2927] | 3 nM | –
9 | CC(OP(=O)(N1CC1)N1CC1)c1ccc([N+](=O)[O-])c(Oc2ccc(F)nc2)c1 (centres unmarked) [Compound 2893] | 20 nM | –
10 | CC(OP(=O)(N1CC1)N1CC1)c1ccc([N+](=O)[O-])c(Oc2ccc3ncsc3c2)c1 (centres unmarked) [Compound 2900] | 40 nM | –
11 | CC(C)(C)c1ccc(Oc2cc(COP(=O)(N3CC3)N3CC3)ccc2[N+](=O)[O-])cc1 [Compound 3035] | 1 nM | –
12 | CC(OP(=O)(N1CC1)N1CC1)c1ccc([N+](=O)[O-])c(Oc2ccccc2-c2ccccc2)c1 (centres unmarked) [Compound 3028] | 700 nM | –
13 | CS(=O)(=O)Nc1ccc(Oc2cc(COP(=O)(N3CC3)N3CC3)ccc2[N+](=O)[O-])cc1 [Compound 2946] | 30 nM | –
